According to PubChem BioAssay AID179 (DTP/NCI, 2004):
The source made the active and inactive calls.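 The calls were made as follows: active = compounds giving half or more protection of infected cells from virus-caused growth loss, again on retest; inactive = the rest.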

Tested on: CEM cells HIV-1 protection, formazan growth assay
Experiment: NCI AIDS Antiviral Assay
Conditions: for IC50: measured here: growth of uninfected CEM cells
Procedure, shortened: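 Steps: treat uninfected and HIV-1-infected human CEM cells at five drug levels; quantify growth by soluble formazan; retest any compound reaching 50% protection; classify actives from the retest.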

Row | Compound | EC50 [µM] | IC50 [µM] | outcome
1 | C=C1C(=O)OC2CC(C)C3(O)C=C(C(C)=O)C4(OC3CC12)C(=O)OC1CC(C)C(/C=C\C(C)=O)=CCC14 (stereo unspecified) | > 37.2 | 19.1 | 
2 | OC1(c2cccc3ccccc23)CCCc2cc3c(ccc4ccccc43)cc21 (stereo unspecified) | > 200 | 155 | 
3 | Cc1ccc([N+](=O)[O-])cc1NC(=O)C(=O)C(C(=O)c1ccccc1F)C1OC(=O)c2ccccc21 (stereo unspecified) | > 275 | 8.32 | 
4 | Cc1noc(NS(=O)(=O)c2ccc(N=c3c4ccccc4n(-c4ccccc4)c4ccccc34)cc2)c1C |  |  | inactive
5 | N#CC1C2C=CC(CCC2)C1C#N (stereo unspecified) | > 200 | > 200 | 
6 | COC(=O)Nc1cn2c(n1)sc1ccccc12 | > 200 | 15.8 | 
7 | CCn1c(SC(C)C(=O)c2c(C)n(C)n(-c3ccccc3)c2=O)nc2ccccc2c1=O (stereo unspecified) | > 112 | > 112 | 
8 | CC(C)CNC(=O)Cn1c2c(c3ccccc31)CCCC2 | > 200 | 81.3 | 
9 | N#CCCN(CCC#N)c1ccc(/C=C2\N=C(c3ccccc3)N(c3ccc(C(=O)O)cc3)C2=O)cc1 | > 200 | 33.9 | 
10 | CC12CC(C#N)(C#N)C(C#N)(CO1)C(=N)O2 (stereo unspecified) | > 200 | 42.7 | 
11 | COc1ccc2nc3cc([N+](=O)[O-])ccc3c(Nc3ccc(S(=O)(=O)Nc4ncccn4)cc3)c2c1 | > 200 | 102 | 
12 | O=c1ccs[nH]1 | > 676 | 6.46 | 
13 | Cc1ccccc1CC1(Br)CC(C)(C)c2ccccc2C1=O (stereo unspecified) | > 200 | 29.5 | 
14 | Cc1cccc(NC(=O)/C(=N\NC(C)(C)C)C2NC(=S)NC2=O)c1C (stereo unspecified) | > 72.4 | > 72.4 | 
15 | C1=NCCNCCN=Cc2ccccc2OCc2cccc(n2)COc2ccccc21 | > 200 | 10.7 | 
16 | COC(=O)C(=O)C1CCCCC(C2=NC3NN=C(N)N3C2=O)C1=O (stereo unspecified) | > 21.4 | > 21.4 | 
17 | Cc1ccnc(NC(=O)Nc2cc(Cl)ccc2Cl)c1 | > 200 | > 200 | 
18 | CC(=O)Nc1ccc2c(c1)C(c1ccccc1)=NCC(=O)N2 | > 200 | 55 | 
19 | CCCCCCCCCCCO/N=C\c1c2c(O)c3c(O)c(C)c4c(c3c1O)C(=O)C(C)(O/C=C\C(OC)C(C)C(OC(C)=O)C(C)C(O)C(C)C(O)C(C)/C=C\C=C(\C)C(=O)N2)O4 (stereo unspecified) | > 200 | 3.02 | 
20 | O=P(OC1=CCCCC1)(c1ccccc1)c1ccccc1 | > 200 | 81.3 | 
21 | O=C1C2=Cc3ccccc3OC2(O)Oc2cc(O)ccc21 (stereo unspecified) | > 200 | 49 | 

Row | Compound | EC50 [µM] | IC50 [µM] | outcome
22 | N#CCCN(CCC#N)Cc1c(O)c(O)c(CN(CCC#N)CCC#N)c2ccccc12 | 115 | 126 | 
23 | CCCCOC(=O)c1c2nc3c(C(=O)OCCCC)ccc(C)c3oc-2c(C)c(=O)c1NC(C)=O | > 151 | 24.5 | 
24 | O=c1[nH]c(=O)n(C2OC(CF)C(O)C2O)cc1N1CCOCC1 (stereo unspecified) | > 200 | > 200 | 
25 | CC(C)C[P+](c1ccccc1)(c1ccccc1)c1ccccc1 | > 20 | 2.19 | 
26 | O=C(OC1CCC2OOC1O2)c1ccc([N+](=O)[O-])cc1 (stereo unspecified) |  |  | inactive
27 | O=C(/C=C/c1ccc(O)c(O)c1)NCCOC(=O)/C=C/c1ccc(O)c(O)c1 | > 200 | 8.51 | 
28 | Cc1cc(CO)c(O)c(CN(CC(=O)O)CC(=O)O)c1 | > 200 | 141 | 
29 | Clc1ccc2nsnc2c1 |  |  | inactive
30 | O=C(NCCCl)N1CCC(CN=c2cc3n(-c4ccc(Cl)cc4)c4ccccc4nc-3cc2Nc2ccc(Cl)cc2)CC1 | > 100 | 17 | 
31 | CNC(=O)c1n[nH]n(C2CCCCC2)c1=S |  |  | inactive
32 | COc1cc([C@@H]2CC3(C)OC(=O)C2CC3C)cc(OC)c1OC (stereo partly specified) | > 562 | > 562 | 
33 | Cn1cc2ccccc2c1-c1nc(F)nc(Oc2ccc3c(c2)CC[C@@H]2C3CC[C@]3(C)C(O)CCC23)n1 (stereo partly specified) | > 5.5 | > 5.5 | 
34 | C=CCC(SC)C1=C(C)C(=O)c2ccccc21 (stereo unspecified) | > 200 | 110 | 
35 | NC(N)NCCCc1cn2c(n1)C1CCCN1C(=O)C2Cc1ccccc1 (stereo unspecified) | > 676 | > 676 | 
36 | OCCCCCNc1ccnc2cc(Cl)ccc12 | > 832 | 47.9 | 
37 | Cc1c(O)ccc(N=O)c1O | > 200 | 123 | 
38 | CC(=N\N=C\c1ccccn1)/C(C)=N/N=C(C)/C(C)=N/N=C(C)/C(C)=N/N=C/c1ccccn1 |  |  | inactive
39 | CC1=N/C(=C\c2cccc(C#N)c2)C(=O)O1 | > 170 | 97.7 | 
40 | CCOC(=O)C(C)(CCC(C)(C(=O)OCC)C(=O)OCC)C(=O)OCC | > 200 | 75.9 | 
41 | CCc1cccc(C)c1NC(=O)CCc1n[nH]c(=S)o1 | > 617 | > 617 | 
42 | CSc1nc(NC2OC(COC(C)=O)C(OC(C)=O)C(OC(C)=O)C2OC(C)=O)c(N=C(C)C(C)=O)c(=O)[nH]1 (stereo unspecified) |  |  | inactive

Row | Compound | EC50 [µM] | IC50 [µM] | outcome
43 | C1CCCC(N2N=NC3C4CC(C5N=NN(C6CCCCCC6)C45)C32)CC1 (stereo unspecified) | > 200 | > 200 | 
44 | O=C(CCN1CCN(c2cccc(Cl)c2)CC1)N1CCc2c([nH]c3ccccc23)C1c1cccnc1 (stereo unspecified) | > 10.5 | > 10.5 | 
45 | O=C1[C@@H]2C(c3cccc([N+](=O)[O-])c3)=NO[C@@H]2C(=O)N1c1ccc(Cc2ccc(N3C(=O)[C@H]4C(c5cccc([N+](=O)[O-])c5)=NO[C@H]4C3=O)cc2)cc1 | > 38 | > 38 | 
46 | O=c1c2ccccc2oc2c1ccc1ncccc12 | > 200 | 6.61 | 
47 | CC(C)C(=O)[O-].CC(C)C(=O)[O-].N.N.N.N.[Co+3].[O-][Cl+3]([O-])([O-])[O-] |  |  | inactive
48 | CC1CCC2C(C(=O)O[C@H]3C4CCO[C@@H](OC5OC(CO)C(O)C(O)C5O)C4[C@@]4(CO)O[C@@H]34)=CO[C@@H](OC3OC(CO)C(O)C(O)C3O)C12 (stereo partly specified) | > 200 | > 200 | 
49 | COc1cccc(C2NC(=S)N3C(c4cccc(OC)c4)NC(=S)N23)c1 (stereo unspecified) |  |  | inactive
50 | C/C=C(C)/C=C/CC(C)CCC=C(C)C (stereo unspecified) | > 200 | 85.1 | 
51 | COc1ccc(C2(OC)Oc3ccccc3C(=O)C2(O)OC)cc1OC (stereo unspecified) | > 200 | 11.5 | 
52 | CCOC(=O)C(NCc1ccc2c(c1)OCO2)(NC(=O)c1ccccc1)C(F)(F)F (stereo unspecified) | > 200 | 30.2 | 
53 | C[CH2][Sn]([CH2]C)([O]C(=O)c1ccc(OC)c(OC)c1OC)[O]C(=O)c1ccc(OC)c(OC)c1OC | > 83.2 | 7.59 | 
54 | C=C1CCC2(C)[C@H](C)CC[C@H](O)C2(CCC=C(C)C)[C@@H]1Cc1c[nH]c2ccccc12 (stereo partly specified) |  |  | inactive
55 | CC(=O)OC1(C)C2c3ccccc3C(c3ccccc32)C1(C)C (stereo unspecified) | > 85.1 | > 85.1 | 
56 | CSc1snc2sc3c(Cl)nnnc3c12 |  |  | inactive
57 | O=C1c2ccccc2-n2nnnc2C2CSCN12 (stereo unspecified) | > 200 | > 200 | 
58 | O=C(CN1CCCCC1)OCOP(=O)(OCOC(=O)CN1CCCCC1)OCC1CCC(n2ccc(=O)[nH]c2=O)O1 (stereo unspecified) | > 100 | 36.3 | 
59 | Cc1cn2c(n1)sc1ccccc12 | > 200 | > 200 | 
60 | Cc1ccc(N=Nc2cc(C)c(N)c(N=Nc3ccc(N=Nc4cc(C(=O)O)c(O)c(S(=O)(=O)O)c4)c(C)c3)c2N)cc1 | 14.1 | > 100 | 
61 | COc1ccc(C2=C(Cl)c3cc(OC)c(OC)cc3C2OC)cc1OC (stereo unspecified) | > 26.3 | > 26.3 | 
62 | COC(=O)c1cc(C(=CCC[C@H]2CC[C@@]3(C)[C@@H](CC[C@H]4[C@@H]3CC[C@]3(C)[C@@H](C(C)CCCC(C)C)CC[C@@H]43)C2)c2cc(F)c(OC)c(C(=O)OC)c2)cc(F)c1OC (stereo partly specified) | > 200 | > 200 | 
63 | COc1ccc(-c2sc(/N=C/c3ccc(-c4ccccc4)cc3)c(C#N)c2C)cc1OC | > 200 | 30.2 | 

Row | Compound | EC50 [µM] | IC50 [µM] | outcome
64 | O=C(Nc1ccc(Cl)cc1Cl)C(=O)C(C(=O)c1ccc2ccccc2c1)C1OC(=O)c2ccccc21 (stereo unspecified) | > 50.1 | 25.7 | 
65 | Cn1c2ccccc2c(=NNc2cccc(C(=O)O)c2)c2ccccc21 | > 200 | 3.8 | 
66 | O=C(Cc1nc2ccc([N+](=O)[O-])cc2[nH]c1=O)C(=O)Nc1cc(Cl)c(Cl)cc1Cl | > 29.5 | 11.2 | 
67 | O=C(NNc1nc2ccccc2n2cccc12)Nc1ccc(Br)cn1 | > 200 | 46.8 | 
68 | OC1C(O)C2CC1C1C2C2(Cl)C(Cl)=C(Cl)C1(Cl)C2(Cl)Cl (stereo unspecified) | > 200 | 12.6 | 
69 | COc1cccc(-c2[nH]c3cc4c(cc3c(=O)c2C(=O)O)OCO4)c1 | > 200 | 13.8 | 
70 | COC(=O)C1=C(CS(=O)c2ccccc2[N+](=O)[O-])C2C=CC1C2 (stereo unspecified) |  |  | inactive
71 | NC(=O)N=Nc1c2ccccc2n2[nH]ccc12 | > 200 | 81.3 | 
72 | Cc1ccc(-c2c(C#N)c(S)n(NS(=O)(=O)c3ccccc3)c(=O)c2C#N)cc1 | > 200 | 18.6 | 
73 | CCOC(=O)c1c(SC(=O)C(C)(C)Oc2ccc(Cl)cc2)n(-c2ccccc2)c(=S)n(-c2ccccc2)c1=O | > 200 | 9.55 | 
74 | CCC(=O)N(O)C(C)(C)C | > 1740 | > 1740 | 
75 | CCOC(=O)c1nc2c(Cl)c3ncccc3cc2[nH]c1=O | > 200 | 12 | 
76 | COc1ccc2[nH]c3c4c(cc(-c5ccccc5)c3c2c1)C(=O)N(c1ccccc1)C4=O | > 9.12 | > 9.12 | 
77 | Cn1c2c(O)c(O)ccc2c(=O)c2c(O)cc3c(c21)C=CC(C)(C)O3 | > 200 | > 200 | 
78 | Cc1c(-c2coc(-c3ccc([N+](=O)[O-])cc3)n2)c(=O)n(-c2ccccc2)n1C | > 36.3 | > 36.3 | 
79 | COc1ccc2c(O)c(S(=O)(=O)c3ccc(C)cc3)c(=O)oc2c1 | > 200 | 132 | 
80 | Nc1ccc(S(=O)(=O)Nc2nc3ccccc3nc2Nc2ccc(S(N)(=O)=O)cc2)cc1 | > 200 | 20.4 | 
81 | Brc1cccc(C2ON=C(c3ccccc3)N2C23CC4CC(CC(C4)C2)C3)c1 (stereo unspecified) | > 200 | > 200 | 
82 | CCSC1=N/C(=C/c2ccccc2O)C(Cl)=N1 | 50.1 | > 200 | 
83 | CCCCCCN1CCN(Cc2ccc(N(CC)CC)cc2)C(=O)C1=O | > 200 | 0.977 | 
84 | O=c1c2cccnc2ncn1CCN1CCOCC1 |  |  | inactive
